# Positions of bridges follow the written chain, without caps; N, C: chain ends. No end group written: not given here.
# How the values were obtained:
# Cav1.3_42 = experiment: Whole cell recording of ICav1.3-42 in HEK-293T cells; format: cell-based; details: for L-type Ca2+ current density: mean ± SEM, n=6
# Procedure: HEK-293T (RRID:CVCL_2737) were obtained from the European Collection of Authenticated Cell Cultures (ECACC 96121229). The identity of HEK-293T has been confirmed by STR profiling and the cells have been eradicated from mycoplasma at ECACC. We routinely tested the cells for the absence of the mycoplasma contamination. Cells were cultivated at 37 °C in DMEM supplemented with GlutaMax, 10% fetal bovine serum and 1% penicillin/streptomycin (Invitrogen, Fisher Scientific, France). Transfections were performed using jet-PEI (Ozyme, France) with a DNA mix containing either the plasmids that code for Cav1.2-GFP, β2a and α2δ (0.8 µg of each) or either the plasmids that code for Cav1.3 (with and without exon 42a), or Cav2.1, or either Cav2.2 combined with β2a and α2δ (0.8 µg of each supplemented with 0.025 µg of a plasmid coding for GFP). For Cav3.1 expression β2a and α2δ subunits were omitted. Plasmids coding for β2a, α2δ and Cav1.3 were created as described previously. Plasmid coding for Cav1.2-GFP was obtained from Dr. Catalucci[60]. After transfection cells were placed at 30 °C for 2–3 days and dissociated with Versene (Invitrogen, Fisher Scientific, France) and plated at a density of ~35 × 10^3 cells per 35 mm Petri dish for electrophysiological recordings, which were performed the following day.
# Macroscopic currents in HEK-293T cells were recorded at room temperature using an Axopatch 200B or Multiclamp 700B patchclamp amplifier (Molecular Devices, Sunnyvale CA). […] The extracellular solution contained (in mM): 135 NaCl, 20 TEACl, 5 BaCl2, 1 MgCl2, and 10 HEPES (pH adjusted to 7.25 with KOH, ~330 mOsm).
# (§1) In all experiments of cellular electrophysiology, we employed synthetized analog of Cas, commercially available at Latoxan (ID: L8109). The native peptide was purified from the venom of Dendroaspis polylepis purchased from Latoxan, as previoulsly described. The pure peptide was obtained after gel filtration, cation exchange and C18 reversed phase chromatography. Its measured molecular mass (7036.26 Da average) was in accordance with the mass calculated from sequence data (7036.22 Da).
# [1] = tested on: total ICaL (ICav1.2+ICav1.3) in SAN myocytes from wild-type mice; experiment: ICaL, patch clamp, SAN myocytes from wild-type mice; format: cell-based, mouse; details: for L-type Ca2+ current density: Cas 1 µM alone or + Nife 3 µM, n=8
# Procedure: (§2) Hearts from Wild-Type and Cav1.3^−/− mice were removed under general anesthesia consisting of 0.01 mg/g xylazine (2% Rompun; Bayer AG) and 0.1 mg/g ketamine (Imalgène;Merial) and immersed in a pre-warmed (36 °C) Tyrode solution containing (mM): 140 NaCl, 5.4 KCl, 1 MgCl2, 1.8 CaCl2, 5.5 D-glucose, and 5 Hepes (adjusted to pH 7.4 with NaOH). […] SAN tissue was excised and transferred into a low-Ca^2+ solution containing (mM): 140 NaCl, 5.4 KCl, 0.5 MgCl2, 0.2 CaCl2, 1.2 KH2PO4, 50 taurine, 5.5 D-glucose, 1 mg/mL BSA, and 5 Hepes–NaOH (adjusted to pH 6.9 with NaOH) for 5 min. Then, enzymatic digestion was carried out for 20-25 min at 36 °C in the low-Ca^2+ solution containing LiberaseTH Research Grade (0.15 mg/mL; Roche, Mannheim, Germany) and elastase (0.5 mg/mL; Worthington, Lakewood, NJ, USA). Digestion was stopped by washing the SAN in a “Kraftbrühe” (KB) medium containing (mM) 100 K-glutamate, 10 K-aspartate, 25 KCl, 10 KH2PO4, 2 MgSO4, 20 taurine, 5 creatine, 0.5 EGTA, 20 D-glucose, 5 Hepes, and 1 mg/mL BSA (adjusted to pH 7.2 with KOH). Single SAN cells were then dissociated from the SAN tissue by manual agitation using a flame-forged Pasteur’s pipette. To recover the automaticity of the SAN cells, Ca^2+ was gradually reintroduced in the cell’s storage solution to a final concentration of 1.8 mM. SAN cells were then left to rest for 1 h before recordings.
# (§3) For patch-clamp recordings of SAN myocytes, cells were harvested in custom-made chambers with glass bottoms for cell attachment. Cells were then super-fused with Tyrode’s solution warmed at 36 °C before recording. Action potentials and ionic currents were recorded using an Axon multi-clamp patch-clamp 700B amplifier. Voltage-gated L-type Ca^2+ currents (ICaL) were recorded using standard whole cell patch-clamp configuration. For recording ICaL, we used an extracellular recording solution contained (mM): 135 tetraethylammonium chloride (TEA-Cl), 10 4-aminopyridine (4-AP), 1 MgCl2, 0.03 tetrodotoxin (TTX), 1 g/L Glucose, 2 CaCl2, 10 Hepes, (adjusted to pH = 7.2 with TEAOH). […] Pacemaker activity was recorded by the perforated patch-clamp technique using escin (40 µg/ml). For recording cell automaticity glass pipettes were filled with the intracellular solution contained (mM): 80 K-Aspartate, 50 KCl, 1 MgCl2, 5 HEPES, 2 CaCl2, 5 EGTA, 3 ATP-Na+ salt; pH was adjusted to 7.2 with KOH. Escin was dissolved in sterile H2O and added to the intracellular solution right before each experiment.
# as §1
# [2] = tested on: SAN myocytes from Wild-Type mice; experiment: Spontaneous action potentials, perforated patch-clamp, SAN pacemaker myocytes; format: cell-based, mouse; details: for action potential duration APD30: 30% repolarization; for action potential duration APD30 / action potential duration APD50 / action potential duration APD70 / action potential duration APD90 / slope of linear part of diastolic depolarization (SLDD) / slope of exponential part of diastolic depolarization (SEDD) / action potential amplitude (APA) / action potential rate: mean ± SEM; for action potential duration APD50: 50% repolarization; for action potential duration APD70: 70% repolarization; for action potential duration APD90: 90% repolarization
# Procedure: as §2, §3
# We used an extracellular recording solution (Tyrode’s based) contained (mM): 140 NaCl, 5.4 KCl, 1 MgCl2, 1.8 CaCl2, 5 HEPES, 5.5 D-Glucose; pH was set to 7.4 with NaOH. AP parameters have been calculated as reported in Baudot et al.[10]. Data were analyzed using pCLAMP9 (Molecular Devices) and GraphPad Prism (GraphPad) software.
# as §1
# [3] = Cas 300 nM alone (n=9/N=4) or + Nife 3 µM (n=8/N=4)
# [4] = Cas 1 µM alone (n=12/N=3) or + Nife 3 µM (n=9/N=3)
sequence,measurement,setting,value
"RICYIHKASLPRATKTCVENTCYKMFIRTQREYISERGCGCPTAMWPYQTECCKGDRCNK (disulfide 3-22, 17-39, 41-52, 53-58 (inferred)) [Cas, calciseptine]","reduction of Ca current, long form of Cav1.3 (Cav1.3L)",Cav1.3_42; Cas 300 nM and 1 µM,did not observe any reduction
same,effect on ICav1.3-42 (I-V relationship),"Cav1.3_42; Cas 300 nM, all voltages tested, at peak p = 0.5696, n=6/N=3",no significant effect
same,L-type Ca2+ current density,"Cav1.3_42; Cas 300 nM, 0 mV, Ctrl -15.10± 3.34",-14.76± 4.28 pA/pF
same,L-type Ca2+ current density,"Cav1.3_42; Cas 300 nM, +10 mV, Ctrl -12.01± 2.36",-11.09± 3.45 pA/pF
same,L-type Ca2+ current density,"Cav1.3_42; Cas 300 nM, +20 mV, Ctrl -6.20± 1.35",-6.12± 2.78 pA/pF
same,L-type Ca2+ current density,"Cav1.3_42; Cas 300 nM, +30 mV, Ctrl -3.03± 0.66",-2.96± 2.36 pA/pF
same,L-type Ca2+ current density,"Cav1.3_42; Cas 300 nM, -10 mV, Ctrl -15.68± 3.76",-15.81± 4.50 pA/pF
same,L-type Ca2+ current density,"Cav1.3_42; Cas 300 nM, -20 mV, Ctrl -12.28± 3.31",-12.95± 3.93 pA/pF
same,reduction of ICav1.3-42,"Cav1.3_42; all concentrations tested (up to 1 µM), holding −60 mV, step 0 mV, 300 nM n=6/N=3, 1 µM n=7/N=3",did not record a statistically significant reduction
same,L-type Ca2+ current density,"[1]; 0 mV, Ctrl -8.45± 1.02",-3.87± 0.71 pA/pF
same,L-type Ca2+ current density,"[1]; +20 mV, Ctrl -5.09± 0.81",-1.53± 0.56 pA/pF
same,L-type Ca2+ current density,"[1]; -10 mV, Ctrl -8.20± 1.10",-4.24± 0.77 pA/pF
same,L-type Ca2+ current density,"[1]; -20 mV, Ctrl -5.61± 0.91",-3.37± 0.54 pA/pF
same,L-type Ca2+ current density,"[1]; -25 mV, Ctrl -3.96± 0.71",-2.46± 0.48 pA/pF
same,L-type Ca2+ current density,"[1]; -30 mV, Ctrl -2.44± 0.47",-1.49± 0.38 pA/pF
same,L-type Ca2+ current density,"[1]; -35 mV, Ctrl -1.18± 0.29",-0.90± 0.24 pA/pF
same,reduction of total ICaL,"[1]; Wild-Type SAN myocytes, voltage clamp",around 45%
same,effect on AP duration,[2]; Cas 300 nM,did not affect AP duration
same,action potential duration APD30,[2]; [3],28 ± 2 ms
same,action potential duration APD50,[2]; [3],46 ± 4 ms
same,action potential duration APD70,[2]; [3],66 ± 6 ms
same,action potential duration APD90,[2]; [3],98 ± 8 ms
same,slope of linear part of diastolic depolarization (SLDD),"[2]; Cas 300 nM alone (n=9/N=4) or + Nife 3 µM (n=8/N=4), Ctrl 0.06 ± 0.01",^$0.05 ± 0.01^p=0.0128 mV/ms
same,slope of exponential part of diastolic depolarization (SEDD),"[2]; Cas 300 nM alone (n=9/N=4) or + Nife 3 µM (n=8/N=4), Ctrl 0.51 ± 0.09",^$0.40 ± 0.04^p=0.0078 mV/ms
same,action potential amplitude (APA),"[2]; Cas 300 nM alone (n=9/N=4) or + Nife 3 µM (n=8/N=4), Ctrl 83 ± 2",75 ± 3 mV
same,action potential rate,"[2]; Cas 300 nM alone (n=9/N=4) or + Nife 3 µM (n=8/N=4), Ctrl 200 ± 21",^$194 ± 19^p=0.0004 bpm
same,effect on AP amplitude,[2]; Cas 300 nM and 1 µM,reduced AP amplitude
same,effect on AP firing rate,[2]; Cas 300 nM and 1 µM,did not affect AP firing rate
same,"effect on maximum diastolic potential, threshold potential and upstroke velocity",[2]; Cas 300 nM or 1 µM,did not observe statistically significant differences
same,effect on slopes of linear and exponential diastolic depolarization,[2]; Cas 300 nM or 1 µM,did not change
same,effect on AP duration at 30% and 50% of repolarization,[2]; Cas 1 µM,had statistically significant effect
same,action potential duration APD30,[2]; [4],25 ± 2 ms
same,action potential duration APD50,[2]; [4],43 ± 3 ms
same,action potential duration APD70,[2]; [4],61 ± 3 ms
same,action potential duration APD90,[2]; [4],87 ± 4 ms
same,slope of linear part of diastolic depolarization (SLDD),"[2]; Cas 1 µM alone (n=12/N=3) or + Nife 3 µM (n=10/N=3), Ctrl 0.07 ± 0.01",^$0.06 ± 0.01^p=0.0187 mV/ms
same,slope of exponential part of diastolic depolarization (SEDD),"[2]; Cas 1 µM alone (n=12/N=3) or + Nife 3 µM (n=10/N=3), Ctrl 0.48 ± 0.06",^$0.50 ± 0.06^p=0.0002 mV/ms
same,action potential amplitude (APA),"[2]; Cas 1 µM alone (n=12/N=3) or + Nife 3 µM (n=10/N=3), Ctrl 91 ± 2",85 ± 3 mV
same,action potential rate,"[2]; Cas 1 µM alone (n=12/N=3) or + Nife 3 µM (n=10/N=3), Ctrl 218 ± 15",^$213 ± 15^p<0.0001 bpm
